Measured values from patent US20220280405A1, “NOVEL COMPOUNDS FOR SKIN LIGHTENING” (Conopco, Inc. , d/b/a UNILEVER, priority 2019, published 2022).

Test system: Melanoderm human tissue (MEL-300-B, Mattek Corp.)
Assay: Melanoderm assay (melanin quantitation)
Assay type: cell-based
Conditions: for Melanin (μg/μg protein): 12 d dosing, melanin normalized to protein, mean +/− standard deviation, n = 3
Method: Control compounds consisted of a negative control (ultrapure water), vehicle control (DMSO in ultrapure water—final concentration of 0.1%) and positive control (2% kojic acid in ultrapure water—final concentration of 700 uM). Test compounds where prepared in DMSO at 10 mM concentrations and diluted with EPI-100-LLMM media (Mattek Corp.) to a final concentration of 10 uM. Melanoderm human tissue (MEL-300-B, Mattek Corp.) was equilibrated with EPI-100-NMM media for 24 h, followed by equilibration with EPI-100-LLMM media for 48 h prior to treatment with test compounds and controls. Dosing and re-feeding of melanoderms with controls and test compounds continued for a total of 12 d following standard protocols and the melanoderms collected for melanin quantitation, viability analysis and macroscopic/microscopic imaging analysis. For melanin quantitation, tissues were suspended in PBS buffer (5 ml) for 5 min, removed from the PBS and washed/rinsed with additional PBS (2 ml). Tissues were treated with 1% sodium bicarbonate solution (300 ul) for 30 min, followed by removal of the sodium bicarbonate solution and washed/rinsed with PBS solution (2×2 ml). Tissues were suspended in Solvable reagent (500 ul) and incubated at 95° C. for 24 h along with melanin standard samples (prepared by suspending melanin (cat # M8631, Sigma-Aldrich) in Solvable reagent to generate melanin standards at 0, 2.5, 5, 10, 25, 50 and 100 ug). All incubated samples were centrifuged at 13000 rpm for 5 min and the optical density of the supernatant was read/determined at 490 nm. The amount of melanin (ug) from each tissue sample was determined from the melanin standard samples calibration curve. Protein concentration of tissue samples was determined using the BCA protein assay kit (Pierce) and melanin content was normalized and expressed as melanin (ug)/protein (ug) (Table 1). Tissue viability as a result of test compound dosing/feeding relative to negative and vehicle controls was determined using the WST-1 reagent kit (cat # 05015944001, Roche). […]

Row | SMILES | Melanin (μg/μg protein) (positive control 700 μM) | melanin content / skin lightening effect (in words) (melanoderm treatment, 10 uM, compared to vehicle control) | Melanin (μg/μg protein) (test compound 10 uM)
1 | O=c1cc(CO)occ1O [Kojic acid, reference compound] | 0.128 +/− 0.004 μg/μg protein |  | 
2 | CC(C)Oc1ccc(C(NC2CCOCC2)C2CCCCC2)cc1 (stereo not drawn) [Compound of example 1, N-(cyclohexyl(4-isopropoxyphenyl)methyl)tetrahydro-2H-pyran-4-amine] |  | reduced melanin content | 0.177 +/− 0.019 μg/μg protein
